In US9289400B2, “D3 dopamine receptor agonists to treat dyskinesia in parkinson's disease” (priority 2010, dated 2016):
Like-named read-outs stand apart in the source and are kept apart here. Marks after values point to notes of the source that are not given here.

How the values were obtained:
D3 dopamine receptor = D3 dopamine receptor (Homo sapiens (Human), UniProt P35462); assay: Adenylyl cyclase inhibition (forskolin-induced cAMP) in AtT-20 cells stably expressing D3; assay type: cell-based; details: for Adenylyl cyclase inhibition: agonist type: versus full agonist quinpirole
Experimental: In the second functional assay, the ability of D2-like dopamine receptors to inhibit adenylyl cyclase activity is assessed. The ability of the lead compound to dose-dependently decrease forskolin-induced cAMP levels is measured. The IC50 values for each receptor subtype is determined by fitting the data points using the Hill equation. Previously, the EC50 and IC50 values for dopamine and quinpirole has been determined in these cell lines in both functional assays.
AtT-20 mouse pituitary cells were grown in Ham's F10 medium with 5% FBS, 10% heat-inactivated horse serum, 2 mM glutamine and 50 μg/ml gentamicin (Invitrogen, Carlsbad, Calif.). AtT-20 cells stabling expressing the human D2S, D2L, D3, and D4.2 and receptor were maintained in the above F10 culture media supplemented with 500 μg/ml G418 (Invitrogen). For electrophysiological characterization, cells were plated onto glass coverslips coated with 40 μg/ml poly L-lysine (Sigma-Aldrich). The generation and characterization of the AtT-20 cells stably expressing various human dopamine receptors have been previously reported (Kuzhikandathil & Oxford, 2000, J. Gen. Physiol. 115:697-706; Kuzhikandathil et al., 1998, Mol. Cell. Neurosci. 12:390-402; Kuzhikandathil & Bartoszyk, 2006, Neuropharm. 51:873-884; Westrich & Kuzhikandathil, 2007, Biochim. Biophys. Acta-MCR 1773:1747-1758; Kuzhikandathil et al., 2004, Mol. Cell. Neurosci. 26:144-155; Westrich et al., 2010, Biochem. Pharmacol. 79:897-907).
Cyclic AMP (cAMP) levels were assessed using the cAMP Biotrak Enzymeimmunoassay (EIA) kit (GE Healthcare, Piscataway, N.J., USA) as described previously (Kuzhikandathil & Bartoszyk, 2006, Neuropharm. 51:873-884). The cAMP levels in each treated sample were assayed in triplicate and the entire experiment repeated three independent times.
To compare the functional effects of the new class of D3 receptor agonists, PBZI (Table 2) and ES609 (Table 3) were tested on AtT-20 cells stably expressing human D3, D2S, D2L or D4.2. Functional efficacy was determined by assessing the ability of PBZI and ES609 to inhibit adenylyl cyclase or activate GIRK channels coupled to these “D2-like” dopamine receptors. The EC50 values of PBZI and ES609 for inhibiting adenylyl cyclase and activating GIRK channels were in the range of 0.2 nM to 30 nM for D3 receptors.

[1] = tested on: intrastriatal 6-OHDA lesioned rats; assay: Forelimb stepping test in intrastriatal 6-OHDA lesioned rats; details: for motor deficits in a rat PD model: FIG. 18
D4.2 dopamine receptor = D4.2 dopamine receptor (Homo sapiens (Human), UniProt P21917, DEL265-296); assay: cell-based; assay type: cell-based
Experimental: (§1) The ability of the lead compound to dose-dependently decrease forskolin-induced cAMP levels is measured. The IC50 values for each receptor subtype is determined by fitting the data points using the Hill equation.
(§2) AtT-20 mouse pituitary cells were grown in Ham's F10 medium with 5% FBS, 10% heat-inactivated horse serum, 2 mM glutamine and 50 μg/ml gentamicin (Invitrogen, Carlsbad, Calif.). AtT-20 cells stabling expressing the human D2S, D2L, D3, and D4.2 and receptor were maintained in the above F10 culture media supplemented with 500 μg/ml G418 (Invitrogen). For electrophysiological characterization, cells were plated onto glass coverslips coated with 40 μg/ml poly L-lysine (Sigma-Aldrich). […] Physiol. […] Neurosci. […] Biophys. […] Neurosci.
(§3) The cAMP levels in each treated sample were assayed in triplicate and the entire experiment repeated three independent times.
(§4) To compare the functional effects of the new class of D3 receptor agonists, PBZI (Table 2) and ES609 (Table 3) were tested on AtT-20 cells stably expressing human D3, D2S, D2L or D4.2.

D2L dopamine receptor = D2L dopamine receptor (Homo sapiens (Human), UniProt P14416); assay: cell-based; assay type: cell-based
Experimental: as §1, §2, §3, §4

[2] = AtT-20 cells, D3, read-out: Adenylyl cyclase inhibition EC50
[3] = D3 receptors, range over both compounds and both assays, read-out: EC50 for inhibiting adenylyl cyclase and activating GIRK channels

D4.2 dopamine receptor, sequence (P21917 other isoform, or with tags, fused parts or gaps del 265-296): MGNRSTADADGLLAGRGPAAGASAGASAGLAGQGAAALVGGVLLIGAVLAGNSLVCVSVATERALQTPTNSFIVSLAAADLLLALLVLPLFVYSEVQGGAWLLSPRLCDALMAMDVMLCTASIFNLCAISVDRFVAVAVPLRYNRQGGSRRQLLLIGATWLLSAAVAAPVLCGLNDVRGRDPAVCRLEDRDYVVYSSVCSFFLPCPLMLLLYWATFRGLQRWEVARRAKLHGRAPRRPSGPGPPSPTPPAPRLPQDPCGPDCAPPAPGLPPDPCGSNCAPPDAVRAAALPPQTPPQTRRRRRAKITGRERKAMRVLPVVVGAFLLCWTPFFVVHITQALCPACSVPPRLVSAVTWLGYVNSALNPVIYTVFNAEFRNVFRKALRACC
D2L dopamine receptor, sequence (P14416 whole entry): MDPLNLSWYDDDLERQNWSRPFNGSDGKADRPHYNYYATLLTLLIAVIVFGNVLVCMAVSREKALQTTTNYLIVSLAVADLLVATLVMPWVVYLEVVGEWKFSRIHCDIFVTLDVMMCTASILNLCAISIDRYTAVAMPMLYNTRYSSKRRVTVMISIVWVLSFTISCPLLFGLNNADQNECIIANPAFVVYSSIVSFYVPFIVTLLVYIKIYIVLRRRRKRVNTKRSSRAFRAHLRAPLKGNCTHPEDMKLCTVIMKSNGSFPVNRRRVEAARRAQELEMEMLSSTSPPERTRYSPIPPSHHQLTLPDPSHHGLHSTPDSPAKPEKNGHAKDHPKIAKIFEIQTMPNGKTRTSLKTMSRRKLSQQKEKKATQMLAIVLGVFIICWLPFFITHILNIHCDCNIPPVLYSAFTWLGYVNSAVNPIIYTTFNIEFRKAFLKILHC
D3 dopamine receptor, sequence (P35462 other isoform, or with tags, fused parts or gaps): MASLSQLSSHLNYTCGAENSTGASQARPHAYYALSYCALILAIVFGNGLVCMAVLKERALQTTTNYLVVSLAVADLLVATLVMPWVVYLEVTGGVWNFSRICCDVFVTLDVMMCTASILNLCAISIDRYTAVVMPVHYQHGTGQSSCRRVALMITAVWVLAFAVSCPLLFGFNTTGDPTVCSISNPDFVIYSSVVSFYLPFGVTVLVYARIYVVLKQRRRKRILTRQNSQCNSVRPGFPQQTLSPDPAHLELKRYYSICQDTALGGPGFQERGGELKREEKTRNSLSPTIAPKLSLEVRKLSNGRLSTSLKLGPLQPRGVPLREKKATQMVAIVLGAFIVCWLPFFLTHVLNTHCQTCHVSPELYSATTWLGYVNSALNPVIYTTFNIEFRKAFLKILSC

**Q.** What does the source list for `CC(N)CCc1ccccc1Cl` (stereo not shown) [ES609]?
**A.** EC50 (D3 dopamine receptor; [2]): 0.15 nM; Adenylyl cyclase inhibition Ratio of ES609 to quinpirole response (at 300 nM) (D3 dopamine receptor; D3, 300 nM): 0.71; Adenylyl cyclase inhibition: agonist type (D3 dopamine receptor; D3): full agonists; Adenylyl cyclase inhibition: agonist type (D3 dopamine receptor; D3, listed as ES0609): Full; EC50 (D3 dopamine receptor; [3]): 0.2 to 30 nM; motor deficits in a rat PD model [1]: improve motor deficits; Adenylyl cyclase inhibition: agonist type (D4.2 dopamine receptor): partial agonist; EC50 (D4.2 dopamine receptor; AtT-20 cells, D4.2, read-out: Adenylyl cyclase inhibition EC50): 0.82 nM; Adenylyl cyclase inhibition Ratio of ES609 to quinpirole response (at 300 nM) (D4.2 dopamine receptor; D4.2, 300 nM): 0.60*; Adenylyl cyclase inhibition: agonist type (D4.2 dopamine receptor; listed as ES0609): Partial; Adenylyl cyclase inhibition: agonist type (D2L dopamine receptor): did not elicit any response; Adenylyl cyclase inhibition EC50 (D2L dopamine receptor; AtT-20 cells, D2L): No response; Adenylyl cyclase inhibition Ratio of ES609 to quinpirole response (at 300 nM) (D2L dopamine receptor; D2L, 300 nM): 0^†; adenylyl cyclase inhibition at 300 nM (D2L dopamine receptor; D2L, 300 nM): ^†no adenylyl cyclase inhibition in the presence of 300 nM ES609; but 300 nM quinpirole elicits ~80% inhibition.; Adenylyl cyclase inhibition: agonist type (D2L dopamine receptor; listed as ES0609): No response

**Q.** What does the source list for `CCCN1CC[C@@H]2c3cc(O)ccc3CC[C@@H]21` [PBZI, (3aS,9bR)-3-propyl-1,2,3a,4,5,9b-hexahydrobenzo[e]indol-8-ol]?
**A.** EC50 (D3 dopamine receptor; [2]): 35 nM; Adenylyl cyclase inhibition Ratio of PBZI to quinpirole response (at 300 nM) (D3 dopamine receptor; D3, 300 nM): 0.97; Adenylyl cyclase inhibition: agonist type (D3 dopamine receptor; D3): full agonists and full; EC50 (D3 dopamine receptor; [3]): 0.2 to 30 nM; motor deficits in a rat PD model [1]: improve motor deficits; effect on beneficial effect of levodopa on bradykinesia/akinesia (stepping test) ([1]; co-administration of PBZI and levodopa): did not attenuate the beneficial effect of levodopa; Adenylyl cyclase inhibition: agonist type (D4.2 dopamine receptor): elicited no response and no; Adenylyl cyclase inhibition EC50 (D4.2 dopamine receptor; AtT-20 cells, D4.2): No response; Adenylyl cyclase inhibition Ratio of PBZI to quinpirole response (at 300 nM) (D4.2 dopamine receptor; D4.2, 300 nM): 0^†; adenylyl cyclase inhibition at 300 nM (D4.2 dopamine receptor; D4.2, 300 nM): ^†no adenylyl cyclase inhibition in the presence of 300 nM PBZI; but 300 nM quinpirole elicits ~70% inhibition.; Adenylyl cyclase inhibition: agonist type (D2L dopamine receptor): full agonist and full; EC50 (D2L dopamine receptor; AtT-20 cells, D2L, read-out: Adenylyl cyclase inhibition EC50): 67 nM; Adenylyl cyclase inhibition Ratio of PBZI to quinpirole response (at 300 nM) (D2L dopamine receptor; D2L, 300 nM): 0.83
